Measured values published in patent publication US20250326772A1, “MRGPRX2 ANTAGONISTS, PHARMACEUTICAL COMPOSITION INCLUDING MRGPRX2 ANTAGONIST, AND METHOD OF TREATING MRGPRX2-MEDIATED DISEASE OR DISORDER” (KYORIN PHARMACEUTICAL CO., LTD., priority 2024, published 2025).

Target: T1, MRGPRX2 (Homo sapiens, UniProt Q96LB1)
T1 sequence (Q96LB1 1-330): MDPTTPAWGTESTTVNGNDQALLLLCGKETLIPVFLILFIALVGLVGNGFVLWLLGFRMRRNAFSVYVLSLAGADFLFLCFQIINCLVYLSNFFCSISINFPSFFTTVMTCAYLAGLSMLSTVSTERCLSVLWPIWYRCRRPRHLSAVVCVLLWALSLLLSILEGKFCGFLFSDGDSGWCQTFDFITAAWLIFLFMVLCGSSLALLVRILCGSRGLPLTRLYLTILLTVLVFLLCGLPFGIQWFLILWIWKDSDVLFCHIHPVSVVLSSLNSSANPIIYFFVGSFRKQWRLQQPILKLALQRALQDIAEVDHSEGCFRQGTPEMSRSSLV
Experiment: MRGPRX2 reporter cell assay (NFAT-RE luciferase, Substance P stimulation)
Assay type: cell-based
Conditions: U2OS cells stably transfected with MRGPRX2 and NFAT-RE luciferase reporter; Substance P at EC80; class symbols
Protocol: MRGPRX2 Reporter Cell Assays U2OS cells (ATCC, Manassas, VA) were stably transfected with MRGPRX2 expression clones (GeneCopoeia, Rockville, MD) and the pGL4.30 [luc2P/NFAT-RE/Hygro] reporter plasmid (Promega, Madison, WI). Clonal cells were maintained in Growth Media (McCoy's 5A, 10% FBS, 495 μg/ml hygromycin, 2 μg/ml puromycin, 100 units/ml penicillin, and 100 ug/ml streptomycin). The day before assay, cells were plated to white 384-well microplates at 3000 (MRGPRX2) cells/well in 10 ul Assay Media (McCoy's 5A, 2% charcoal dextran stripped FBS, 100 units/ml penicillin, and 100 ug/ml streptomycin) (Gibco, Thermo Fisher) and allowed to adhere overnight. The following day, serially diluted compound stocks were added directly to the cells (final DMSO concentration of 0.5%) and pre-incubated for 30 minutes at 37° C., 5% CO2. The final concentration of Substance P (Tocris, Minneapolis, MN, or PEPTIDE INSTITUTE, Osaka, Japan) corresponding to EC80 was added to stimulate the (MRGPRX2) cells. Cells were returned to the incubator for 6 hrs, after which 5 ul of ONE-GLO substrate (Promega) was added. Luminescence was read within 15 minutes (BioTek, Winooski, VT or infinite M1000Pro, Tecan Japan, Kanagawa, Japan). Percent inhibition for each test compound was calculated using the formula: […] where: • A=the luminescence count of the “test compound” well • B=the median luminescence count of the “Vehicle (0.5% DMSO)” wells • C═the median luminescence count of the “Vehicle (0.5% DMSO)+5 uM of substance P” wells The mean percent inhibition of each concentration of “test compound” was used to generate dose-response curves. IC50 values were calculated using a four-parameter logistic fit to the data using GraphPad Prism software. • +++: […]

SMILES | IC50 [µM]
Cn1cc(-c2c(-c3c(C(F)F)nn4c3OC[C@@H](NC(=O)[C@H]3C[C@H]3F)C4)[nH]c3ncccc23)c(OC(F)F)n1 (atropisomer, axis not shown) [EX. 548] | < 0.01
COc1ccc(F)cc1-c1[nH]c2ncccc2c1-c1cc(C)ccc1F [EX. 21, 2-(5-fluoro-2-methoxy-phenyl)-3-(2-fluoro-5-methyl-phenyl)-1H-pyrrolo[2,3-b]pyridine] | < 0.01
COc1ccc(F)cc1-c1[nH]c2nccc(F)c2c1-c1ccccc1C#N [EX. 27] | < 0.01
[2H]c1c([2H])c([2H])c(-c2[nH]c3nccc(F)c3c2-c2ccccc2C#N)c(O)c1[2H] [EX. 45] | < 0.01
N#Cc1ccccc1-c1c(-c2cnn3c2OCCC3)[nH]c2ncccc12 [EX. 50] | < 0.01
COc1ccsc1-c1[nH]c2ncccc2c1-c1ccccc1C#N [EX. 53] | < 0.01
N#Cc1ccccc1-c1c(-c2cc(F)ccc2O)[nH]c2ncccc12 [EX. 54] | < 0.01
N#Cc1ccccc1-c1c(-c2c[nH]nc2C(F)F)[nH]c2ncccc12 [EX. 71] | < 0.01
N#Cc1ccccc1-c1c(-c2csnc2C(F)F)[nH]c2ncccc12 [EX. 75] | < 0.01
N#Cc1ccccc1-c1c(-c2c[nH]nc2C(F)(F)F)[nH]c2nccc(F)c12 [EX. 77] | < 0.01
Cc1ccnc2[nH]c(-c3c[nH]nc3C(F)(F)F)c(-c3ccccc3C#N)c12 [EX. 78] | < 0.01
COc1ccc(C#N)c(-c2c(-c3c[nH]nc3C(F)(F)F)[nH]c3ncccc23)c1 [EX. 80] | < 0.01
N#Cc1ccccc1-c1c(-c2cn[nH]c2C(F)F)[nH]c2nccc(F)c12 [EX. 81] | < 0.01
[2H]c1cnc2[nH]c(-c3cn(C)nc3C(F)F)c(-c3cc(OC([2H])([2H])[2H])ccc3C#N)c2c1 [EX. 89] | < 0.01
N#Cc1ccccc1-c1c(-c2cnn3c2OCCC3)[nH]c2nccc(F)c12 [EX. 90] | < 0.01
N#Cc1ccccc1-c1c(-c2c[nH]nc2C(F)(F)F)[nH]c2ncccc12 [EX. 94] | < 0.01
COc1ccc(C#N)c(-c2c(-c3c[nH]nc3C(F)F)[nH]c3ncccc23)c1 [EX. 96] | < 0.01
Cc1ccc(C#N)c(-c2c(-c3cn(C)nc3C(F)F)[nH]c3ncccc23)c1 [EX. 99] | < 0.01
Cc1ccc(C#N)c(-c2c(-c3cnn4cccnc34)[nH]c3ncccc23)c1 [EX. 100] | < 0.01
Cc1ccc(C#N)c(-c2c(-c3c[nH]nc3C(F)F)[nH]c3ncccc23)c1 [EX. 101] | < 0.01
COc1ccc(C#N)c(-c2c(-c3cc(F)ccc3OC)[nH]c3ncccc23)c1 [EX. 107, 2-(2-(5-fluoro-2-methoxyphenyl)-1H-pyrrolo[2,3-b]pyridin-3-yl)-4-methoxybenzonitrile] | < 0.01
N#Cc1ccccc1-c1c(-c2ccccc2OCc2ccccc2)[nH]c2ncccc12 [EX. 109] | < 0.01

SMILES | IC50 [µM]
COc1ccc(C#N)c(-c2c(-c3cn(C)nc3C(F)F)[nH]c3ncccc23)c1 [EX. 113] | < 0.01
CCc1ccc(C#N)c(-c2c(-c3cn(C)nc3C(F)F)[nH]c3ncccc23)c1 [EX. 116] | < 0.01
N#Cc1ccccc1-c1c(-c2ccccc2O)[nH]c2ncccc12 [EX. 122] | < 0.01
Cn1cc(-c2[nH]c3ncccc3c2-c2ccccc2C#N)c(C(F)(F)F)n1 [EX. 128] | < 0.01
Cc1ccc(F)c(-c2c(-c3cn(C)nc3C(F)F)[nH]c3ncccc23)c1 [EX. 133] | < 0.01
COc1nsc(OC)c1-c1[nH]c2ncccc2c1-c1ccccc1C#N [EX. 137] | < 0.01
COc1nn2cccnc2c1-c1[nH]c2ncccc2c1-c1ccccc1C#N [EX. 141] | < 0.01
Cn1cc(-c2[nH]c3ncccc3c2-c2ccccc2C#N)c(C(F)F)n1 [EX. 146] | < 0.01
CCn1cc(-c2[nH]c3ncccc3c2-c2ccccc2C#N)c(C(F)(F)F)n1 [EX. 147] | < 0.01
N#Cc1ccccc1-c1c(-c2c[nH]nc2OC(F)F)[nH]c2ncccc12 [EX. 157] | < 0.01
Cc1ccc(C#N)c(-c2c(-c3c[nH]nc3OC(F)F)[nH]c3ncccc23)c1 [EX. 158] | < 0.01
[2H]C([2H])([2H])Oc1ccc(C#N)c(-c2c(-c3c(C)nn4c3OC(C)C4)[nH]c3ncccc23)c1 (stereo not shown) [EX. 167] | < 0.01
[2H]C([2H])([2H])Oc1ccc(C#N)c(-c2c(-c3c(C)nn4c3NCC4)[nH]c3ncccc23)c1 [EX. 168] | < 0.01
[2H]C([2H])([2H])Oc1ccc(C#N)c(-c2c(-c3c(C)nn4cc[nH]c34)[nH]c3ncccc23)c1 [EX. 169] | < 0.01
[2H]C([2H])([2H])Oc1ccc(C#N)c(-c2c(-c3c(C)nn4c3OCCC4C)[nH]c3ncccc23)c1 (stereo not shown) [EX. 170] | < 0.01
[2H]C([2H])([2H])Oc1ccc(C#N)c(-c2c(-c3c(OC)nn4cccnc34)[nH]c3ncccc23)c1 [EX. 175] | < 0.01
[2H]C([2H])([2H])Oc1ccc(C#N)c(-c2c(-c3c(C)nn4c3OCC[C@@H]4C)[nH]c3ncccc23)c1 [EX. 176] | < 0.01
[2H]C([2H])([2H])Oc1ccc(C#N)c(-c2c(-c3c(C4CC4)nn4c3OCCC4)[nH]c3ncccc23)c1 [EX. 177] | < 0.01
[2H]C([2H])([2H])Oc1ccc(C#N)c(-c2c(-c3c(C)nn4c3OCC[C@H]4C)[nH]c3ncccc23)c1 [EX. 178] | < 0.01
[2H]C([2H])([2H])Oc1ccc(C#N)c(-c2c(-c3c(C)nn4cc(OC)cnc34)[nH]c3ncccc23)c1 [EX. 179] | < 0.01
COc1ccc(C#N)c(-c2c(-c3c(C)nn4cc(O)cnc34)[nH]c3ncccc23)c1 [EX. 181] | < 0.01
COc1ccc(C#N)c(-c2c(-c3c(C)nn4cc(F)cnc34)[nH]c3ncccc23)c1 [EX. 182] | < 0.01

SMILES | IC50 [µM]
COc1ccc(C#N)c(-c2c(-c3c(C(F)F)nn4c3OCC3(CC3)C4)[nH]c3ncccc23)c1 [EX. 183] | < 0.01
[2H]C([2H])([2H])Oc1ccc(C#N)c(-c2c(-c3c(C)nn4c3OCC(O)C4)[nH]c3ncccc23)c1 (stereo not shown) [EX. 199] | < 0.01
[2H]C([2H])([2H])Oc1ccc(C#N)c(-c2c(-c3c(CC)nn4c3OCCC4)[nH]c3ncccc23)c1 [EX. 200] | < 0.01
[2H]C([2H])([2H])Oc1ccc(C#N)c(-c2c(-c3c(C(F)F)nn4c3OCC(OC)C4)[nH]c3ncccc23)c1 (stereo not shown) [EX. 201] | < 0.01
[2H]C([2H])([2H])Oc1ccc(C#N)c(-c2c(-c3c(C(F)F)nn4c3OCC(O)C4)[nH]c3ncccc23)c1 (stereo not shown) [EX. 202] | < 0.01
N#Cc1ccccc1-c1c(-c2c(C(F)F)nn3c2OCC(O)C3)[nH]c2ncccc12 (stereo not shown) [EX. 203] | < 0.01
[2H]c1cnc2[nH]c(-c3c(C)nn4c3OCCC4)c(-c3cc(OC([2H])([2H])[2H])ccc3C#N)c2c1 [EX. 216] | < 0.01
[2H]c1cnc2[nH]c(-c3c(C)nn4c3OCC4)c(-c3cc(OC([2H])([2H])[2H])ccc3C#N)c2c1 [EX. 218] | < 0.01
COc1ccc(C#N)c(-c2c(-c3c(OC)nn4cccnc34)[nH]c3ncccc23)c1 [EX. 225] | < 0.01
COc1ccc(C#N)c(-c2c(-c3c(C)nn4c3OCCC4)[nH]c3ncccc23)c1 [EX. 227] | < 0.01
COc1ccc(C#N)c(-c2c(-c3c(C)nn4c3OCC4)[nH]c3ncccc23)c1 [EX. 230] | < 0.01
[2H]C([2H])([2H])Oc1ccc(C#N)c(-c2c(-c3c(CF)nn4c3OCCC4)[nH]c3ncccc23)c1 [EX. 235] | < 0.01
[2H]C([2H])([2H])Oc1ccc(C#N)c(-c2c(-c3c(C)nn4cccnc34)[nH]c3ncccc23)c1 [EX. 236] | < 0.01
[2H]C([2H])([2H])Oc1ccc(C#N)c(-c2c(-c3c(C)nn4c3OCC4)[nH]c3ncccc23)c1 [EX. 238] | < 0.01
[2H]C([2H])([2H])Oc1ccc(C#N)c(-c2c(-c3c(C)nn4c3OCCC4)[nH]c3ncccc23)c1 [EX. 239] | < 0.01
Cn1nc(-c2[nH]c3ncccc3c2-c2ccccc2C#N)c(C(F)(F)F)n1 [EX. 241] | < 0.01
COc1ccc(C#N)c(-c2c(-c3c(C(F)F)nn4c3OCCC4)[nH]c3ncccc23)c1 [EX. 242] | < 0.01
COc1ccc(C#N)c(-c2c(-c3c(C(F)F)nn4c3OCC4)[nH]c3ncccc23)c1 [EX. 243] | < 0.01
COc1ccc(C#N)c(-c2c(-c3c(C)nn4cccnc34)[nH]c3ncccc23)c1 [EX. 245] | < 0.01
[2H]C([2H])([2H])Oc1ccc(C#N)c(-c2c(-c3c(C(F)F)nn4c3OCCC4)[nH]c3ncccc23)c1 [EX. 247] | < 0.01
